#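 Cultured in 96-well plates, cells were exposed to test compound for 48 hours across five concentrations. Abbreviation: GI50, concentration required for 50% inhibition of growth. At the TGI there is no net growth.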
# Key:
# Assay in all cases: inhibition of tumour cell growth, NCI panel, 48 h
# IGROV1 ovarian = system: IGROV1 ovarian
# OVCAR-5 ovarian = system: OVCAR-5 ovarian
# PC-3 prostate = system: PC-3 prostate
# HCT-116 colon = system: HCT-116 colon
# NCI-H226 lung = system: NCI-H226 lung
# OVCAR-8 ovarian = system: OVCAR-8 ovarian
# NCI/ADR-RES ovarian = system: NCI/ADR-RES ovarian
# ACHN renal = system: ACHN renal
# SNB-75 CNS = system: SNB-75 CNS
# TK-10 renal = system: TK-10 renal
# OVCAR-4 ovarian = system: OVCAR-4 ovarian
# A498 renal = system: A498 renal
# BT-549 breast = system: BT-549 breast
# UO-31 renal = system: UO-31 renal
# UACC-62 melanoma = system: UACC-62 melanoma
# MALME-3M melanoma = system: MALME-3M melanoma
# SN12C renal = system: SN12C renal
# SF-539 CNS = system: SF-539 CNS
# DU-145 prostate = system: DU-145 prostate
# A549 NSCLC = system: A549 NSCLC
# OVCAR-3 ovarian = system: OVCAR-3 ovarian
# SK-OV-3 ovarian = system: SK-OV-3 ovarian
# SW-620 colon = system: SW-620 colon
# COLO 205 colon = system: COLO 205 colon
# U251 CNS = system: U251 CNS
# HOP-62 NSCLC = system: HOP-62 NSCLC
# KM12 colon = system: KM12 colon
# M14 melanoma = system: M14 melanoma
# 786-0 renal = system: 786-0 renal
# SK-MEL-28 melanoma = system: SK-MEL-28 melanoma
# HOP-92 NSCLC = system: HOP-92 NSCLC
# SNB-19 CNS = system: SNB-19 CNS
# NCI-H460 lung = system: NCI-H460 lung
# SF-295 CNS = system: SF-295 CNS
# MDA-MB-231 breast = system: MDA-MB-231 breast
# MOLT-4 leukemia = system: MOLT-4 leukemia
# UACC-257 melanoma = system: UACC-257 melanoma
# HS 578T breast = system: HS 578T breast
# HL-60(TB) leukemia = system: HL-60(TB) leukemia
# SK-MEL-5 melanoma = system: SK-MEL-5 melanoma
# SR leukemia = system: SR leukemia
# SF-268 CNS = system: SF-268 CNS
# SK-MEL-2 melanoma = system: SK-MEL-2 melanoma
# K-562 leukemia = system: K-562 leukemia
# RPMI-8226 leukemia = system: RPMI-8226 leukemia
# HT29 colon = system: HT29 colon
# LOX IMVI melanoma = system: LOX IMVI melanoma
# CAKI-1 renal = system: CAKI-1 renal
# EKVX NSCLC = system: EKVX NSCLC
# NCI-H522 lung = system: NCI-H522 lung
# HCT-15 colon = system: HCT-15 colon
# CCRF-CEM leukemia = system: CCRF-CEM leukemia
# MDA-MB-435 = system: MDA-MB-435
# RXF 393 renal = system: RXF 393 renal
# T-47D breast = system: T-47D breast
# NCI-H23 lung = system: NCI-H23 lung
# MCF7 breast = system: MCF7 breast
# HCC-2998 colon = system: HCC-2998 colon
smiles,measurement,setting,value
FC(F)(F)c1cc(Nc2ccc3c(OCCCN4CCOCC4)cccc3n2)ccc1Cl,GI50,IGROV1 ovarian,3.96 µM
same,TGI,IGROV1 ovarian,37.8 µM
same,GI50,OVCAR-5 ovarian,2.36 µM
same,TGI,OVCAR-5 ovarian,6.24 µM
same,GI50,PC-3 prostate,2.26 µM
same,TGI,PC-3 prostate,> 100 µM
same,GI50,HCT-116 colon,2.07 µM
same,TGI,HCT-116 colon,4.55 µM
same,GI50,NCI-H226 lung,3.54 µM
same,TGI,NCI-H226 lung,> 100 µM
same,GI50,OVCAR-8 ovarian,4.33 µM
same,TGI,OVCAR-8 ovarian,> 100 µM
same,GI50,NCI/ADR-RES ovarian,3.16 µM
same,TGI,NCI/ADR-RES ovarian,> 100 µM
same,GI50,ACHN renal,2.98 µM
same,TGI,ACHN renal,10.3 µM
same,GI50,SNB-75 CNS,1.89 µM
same,TGI,SNB-75 CNS,6.2 µM
same,GI50,TK-10 renal,3.49 µM
same,TGI,TK-10 renal,> 100 µM
same,GI50,OVCAR-4 ovarian,3.07 µM
same,TGI,OVCAR-4 ovarian,> 100 µM
same,GI50,A498 renal,3.12 µM
same,TGI,A498 renal,48.3 µM
same,GI50,BT-549 breast,2.43 µM
same,TGI,BT-549 breast,8.76 µM
same,GI50,UO-31 renal,1.63 µM
same,TGI,UO-31 renal,4.29 µM
same,GI50,UACC-62 melanoma,2.05 µM
same,TGI,UACC-62 melanoma,4.16 µM
same,GI50,MALME-3M melanoma,1.69 µM
same,TGI,MALME-3M melanoma,4.11 µM
same,GI50,SN12C renal,3.35 µM
same,TGI,SN12C renal,16.8 µM
same,GI50,SF-539 CNS,1.9 µM
same,TGI,SF-539 CNS,4.01 µM
same,GI50,DU-145 prostate,2.78 µM
same,TGI,DU-145 prostate,> 100 µM
C=C1C(=O)O[C@H]2[C@H]1CC/C(COC(=O)OCCCCCOC(=O)OC/C1=C/CC[C@@]3(C)O[C@H]3[C@H]3OC(=O)C(=C)[C@@H]3CC1)=C\CC[C@@]1(C)O[C@@H]21,GI50,IGROV1 ovarian,1.67 µM
same,TGI,IGROV1 ovarian,4.37 µM
same,GI50,A549 NSCLC,2.63 µM
same,TGI,A549 NSCLC,7.42 µM
same,GI50,OVCAR-3 ovarian,0.273 µM
same,TGI,OVCAR-3 ovarian,0.823 µM
same,GI50,OVCAR-5 ovarian,0.581 µM
same,TGI,OVCAR-5 ovarian,2.08 µM
same,GI50,PC-3 prostate,1.83 µM
same,TGI,PC-3 prostate,4.54 µM
same,GI50,HCT-116 colon,0.174 µM
same,TGI,HCT-116 colon,0.5 µM
same,GI50,NCI-H226 lung,1.64 µM
same,TGI,NCI-H226 lung,3.42 µM
same,GI50,SK-OV-3 ovarian,2.93 µM
same,TGI,SK-OV-3 ovarian,9.67 µM
same,GI50,OVCAR-8 ovarian,0.331 µM
same,TGI,OVCAR-8 ovarian,0.998 µM
same,GI50,NCI/ADR-RES ovarian,2.34 µM
same,TGI,NCI/ADR-RES ovarian,9.58 µM
same,GI50,SW-620 colon,0.285 µM
same,TGI,SW-620 colon,0.902 µM
same,GI50,ACHN renal,0.176 µM
same,TGI,ACHN renal,0.341 µM
same,GI50,SNB-75 CNS,1.11 µM
same,TGI,SNB-75 CNS,2.5 µM
same,GI50,TK-10 renal,0.222 µM
same,TGI,TK-10 renal,0.59 µM
same,GI50,COLO 205 colon,0.199 µM
same,TGI,COLO 205 colon,0.438 µM
same,GI50,OVCAR-4 ovarian,0.683 µM
same,TGI,OVCAR-4 ovarian,2.15 µM
same,GI50,U251 CNS,1.31 µM
same,TGI,U251 CNS,2.82 µM
same,GI50,HOP-62 NSCLC,1.76 µM
same,TGI,HOP-62 NSCLC,4.02 µM
same,GI50,KM12 colon,1.51 µM
same,TGI,KM12 colon,3.31 µM
same,GI50,M14 melanoma,0.406 µM
same,TGI,M14 melanoma,1.81 µM
same,GI50,A498 renal,1.5 µM
same,TGI,A498 renal,3.21 µM
same,GI50,786-0 renal,0.266 µM
same,TGI,786-0 renal,0.93 µM
same,GI50,SK-MEL-28 melanoma,0.252 µM
same,TGI,SK-MEL-28 melanoma,0.842 µM
same,GI50,HOP-92 NSCLC,1.26 µM
same,TGI,HOP-92 NSCLC,2.94 µM
same,GI50,SNB-19 CNS,2.1 µM
same,TGI,SNB-19 CNS,7.71 µM
same,GI50,NCI-H460 lung,1.87 µM
same,TGI,NCI-H460 lung,4.64 µM
same,GI50,SF-295 CNS,2.12 µM
same,TGI,SF-295 CNS,5.88 µM
same,GI50,MDA-MB-231 breast,0.256 µM
same,TGI,MDA-MB-231 breast,0.803 µM
same,GI50,BT-549 breast,0.182 µM
same,TGI,BT-549 breast,0.437 µM
same,GI50,UO-31 renal,0.674 µM
same,TGI,UO-31 renal,2.05 µM
same,GI50,MOLT-4 leukemia,0.229 µM
same,TGI,MOLT-4 leukemia,0.727 µM
same,GI50,UACC-257 melanoma,0.661 µM
same,TGI,UACC-257 melanoma,2.31 µM
same,GI50,HS 578T breast,2.48 µM
same,TGI,HS 578T breast,19.8 µM
same,GI50,UACC-62 melanoma,1.28 µM
same,TGI,UACC-62 melanoma,3.05 µM
same,GI50,HL-60(TB) leukemia,0.281 µM
same,TGI,HL-60(TB) leukemia,0.793 µM
same,GI50,SK-MEL-5 melanoma,1.53 µM
same,TGI,SK-MEL-5 melanoma,3.07 µM
same,GI50,SR leukemia,0.208 µM
same,TGI,SR leukemia,0.744 µM
same,GI50,MALME-3M melanoma,0.285 µM
same,TGI,MALME-3M melanoma,0.878 µM
same,GI50,SF-268 CNS,1.68 µM
same,TGI,SF-268 CNS,3.99 µM
same,GI50,SK-MEL-2 melanoma,1.37 µM
same,TGI,SK-MEL-2 melanoma,3.31 µM
same,GI50,K-562 leukemia,0.267 µM
same,TGI,K-562 leukemia,1.08 µM
same,GI50,RPMI-8226 leukemia,0.359 µM
same,TGI,RPMI-8226 leukemia,1.47 µM
same,GI50,HT29 colon,0.242 µM
same,TGI,HT29 colon,0.726 µM
same,GI50,LOX IMVI melanoma,0.241 µM
same,TGI,LOX IMVI melanoma,0.654 µM
same,GI50,CAKI-1 renal,0.308 µM
same,TGI,CAKI-1 renal,1.02 µM
same,GI50,EKVX NSCLC,1.12 µM
same,TGI,EKVX NSCLC,3.32 µM
same,GI50,SF-539 CNS,0.61 µM
same,TGI,SF-539 CNS,2.04 µM
same,GI50,NCI-H522 lung,0.156 µM
same,TGI,NCI-H522 lung,0.372 µM
same,GI50,HCT-15 colon,0.252 µM
same,TGI,HCT-15 colon,0.822 µM
same,GI50,DU-145 prostate,1.04 µM
same,TGI,DU-145 prostate,2.3 µM
same,GI50,CCRF-CEM leukemia,0.321 µM
same,TGI,CCRF-CEM leukemia,1.14 µM
same,GI50,MDA-MB-435,0.527 µM
same,TGI,MDA-MB-435,2.13 µM
same,GI50,RXF 393 renal,0.155 µM
same,TGI,RXF 393 renal,0.307 µM
same,GI50,T-47D breast,0.244 µM
same,TGI,T-47D breast,0.75 µM
same,GI50,NCI-H23 lung,0.674 µM
same,TGI,NCI-H23 lung,2.37 µM
CN(CCNC(=O)c1[nH]nc2c1ccc1ccccc12)CCNC(=O)c1[nH]nc2c1ccc1ccccc12,TGI,OVCAR-3 ovarian,6.26 µM
same,TGI,OVCAR-5 ovarian,3.71 µM
same,TGI,PC-3 prostate,6.8 µM
same,TGI,NCI-H226 lung,46.5 µM
same,TGI,MCF7 breast,3.29 µM
same,TGI,SK-OV-3 ovarian,30.1 µM
same,TGI,NCI/ADR-RES ovarian,> 100 µM
same,TGI,COLO 205 colon,2.74 µM
same,TGI,KM12 colon,5.3 µM
same,TGI,M14 melanoma,3.49 µM
same,TGI,A498 renal,67.7 µM
same,TGI,HOP-92 NSCLC,18.5 µM
same,TGI,NCI-H460 lung,5.11 µM
same,TGI,BT-549 breast,53.2 µM
same,TGI,UO-31 renal,29.1 µM
same,TGI,UACC-257 melanoma,56.7 µM
same,TGI,HL-60(TB) leukemia,5.95 µM
same,TGI,SK-MEL-5 melanoma,3.24 µM
same,TGI,SF-268 CNS,4.84 µM
same,TGI,SK-MEL-2 melanoma,37.9 µM
same,TGI,HT29 colon,3.27 µM
same,TGI,LOX IMVI melanoma,3.33 µM
same,TGI,CAKI-1 renal,> 76.2 µM
same,TGI,HCC-2998 colon,3.61 µM
same,TGI,NCI-H522 lung,3.9 µM
same,TGI,HCT-15 colon,46.7 µM
same,TGI,DU-145 prostate,10.2 µM
same,TGI,CCRF-CEM leukemia,5 µM
same,TGI,T-47D breast,5.03 µM
same,TGI,NCI-H23 lung,4.09 µM

# Reference: PubChem BioAssay (NCI)
